What was measured:
Acetylcholinesterase = Acetylcholinesterase (Electrophorus electricus, UniProt O42275); experiment: Inhibition of electric eel AChE using acetylthiocholine as substrate preincubated for 20 mins followed by substrate addition measured every 2 mins for 20 mins by Ellman's method
HEK293 [1] = experiment: Cytotoxicity against HEK293 cells at > 50 uM after 24 hrs by MTT assay; type: cell-based; settings: human, hek293, 24 h
Cholinesterase = Cholinesterase (Equus caballus, UniProt P81908)
Sequence of Cholinesterase (P81908 whole entry): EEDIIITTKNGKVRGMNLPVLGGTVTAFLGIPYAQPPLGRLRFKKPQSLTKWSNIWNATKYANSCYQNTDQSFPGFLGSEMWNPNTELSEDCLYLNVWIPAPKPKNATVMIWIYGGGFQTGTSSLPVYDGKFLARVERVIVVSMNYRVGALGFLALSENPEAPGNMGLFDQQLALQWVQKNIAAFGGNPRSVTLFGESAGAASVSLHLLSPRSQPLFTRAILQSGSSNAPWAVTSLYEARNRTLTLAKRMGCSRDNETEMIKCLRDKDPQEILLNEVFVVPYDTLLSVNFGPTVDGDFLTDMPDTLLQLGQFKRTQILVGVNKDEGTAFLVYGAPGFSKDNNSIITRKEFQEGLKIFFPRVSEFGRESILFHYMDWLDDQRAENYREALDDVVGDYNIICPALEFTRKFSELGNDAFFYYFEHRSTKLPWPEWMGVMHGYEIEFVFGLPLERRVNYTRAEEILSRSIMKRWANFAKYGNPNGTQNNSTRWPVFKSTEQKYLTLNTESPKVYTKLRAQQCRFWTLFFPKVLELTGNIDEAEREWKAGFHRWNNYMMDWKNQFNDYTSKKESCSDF
Description: Inhibition of equine serum BChE using butyrylthiocholine as substrate preincubated for 20 mins followed by substrate addition measured every 2 mins for 20 mins by Ellman's method

[2] = Cytotoxicity against HEK293 cells assessed as cell viability up to 100 uM after 24 hrs by MTT assay relative to control; type: cell-based; settings: human, read-out: Activity
[3] = Hepatotoxicity against human HepG2 cells assessed as reduction in cell viability at 50 uM after 24 hrs by MTT assay; type: toxicity, cell-based; settings: hepg2, 24 h
HEK293 [4] = experiment: Cytotoxicity against HEK293 cells at 0.1 to 300 uM after 24 hrs by MTT assay; type: cell-based; settings: human, hek293, 24 h
[5] = Hepatotoxicity against human HepG2 cells assessed as reduction in cell viability at 300 uM after 24 hrs by MTT assay; type: toxicity, cell-based; settings: hepg2, 24 h
[6] = Hepatotoxicity against human HepG2 cells assessed as reduction in cell viability at 10 to 300 uM after 72 hrs by MTT assay; type: toxicity, cell-based; settings: hepg2, 72 h

Sequence of Acetylcholinesterase (O42275 whole entry): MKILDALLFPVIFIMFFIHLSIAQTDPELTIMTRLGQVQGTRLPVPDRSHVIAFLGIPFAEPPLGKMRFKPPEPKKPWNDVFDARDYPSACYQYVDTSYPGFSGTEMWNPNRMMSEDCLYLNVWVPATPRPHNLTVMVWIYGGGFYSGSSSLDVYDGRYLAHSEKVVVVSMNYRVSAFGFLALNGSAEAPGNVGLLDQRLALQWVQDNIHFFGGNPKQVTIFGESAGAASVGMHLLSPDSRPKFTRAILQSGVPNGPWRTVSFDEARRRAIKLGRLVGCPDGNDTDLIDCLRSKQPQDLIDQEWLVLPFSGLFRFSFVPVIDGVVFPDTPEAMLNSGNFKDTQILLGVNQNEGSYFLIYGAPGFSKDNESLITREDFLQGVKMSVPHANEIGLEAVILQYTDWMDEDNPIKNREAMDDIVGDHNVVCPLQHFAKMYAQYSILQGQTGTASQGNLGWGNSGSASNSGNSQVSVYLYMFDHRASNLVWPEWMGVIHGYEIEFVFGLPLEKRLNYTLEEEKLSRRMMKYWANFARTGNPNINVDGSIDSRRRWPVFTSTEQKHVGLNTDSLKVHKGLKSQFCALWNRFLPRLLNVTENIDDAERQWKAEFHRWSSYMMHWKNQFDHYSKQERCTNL

SMILES	IC50 (Acetylcholinesterase) [nM]	Activity (HEK293 [1])	IC50 (Cholinesterase) [nM]	viability at 24 h [2] [%]	Activity [3]	Activity (HEK293 [4])	Activity [5]	Activity [6]
Cn1cc(-c2ccc3c(N)c4c(nc3c2)CCC(C(=O)NCCc2ccccc2)C4)cn1 (configuration not stated)	189	Toxic	10600	–	–	–	–	–
Cn1cc(-c2ccc3c(N)c4c(nc3c2)CCC(C(=O)NCCCc2ccccc2)C4)cn1 (configuration not stated)	57.6	–	2770	–	–	–	–	–
Cn1nccc1NC(=O)C1CCc2nc3cc(Br)ccc3c(N)c2C1 (configuration not stated)	17.7	–	20900	> 80	–	–	–	–
Nc1c2c(nc3cc(-c4cncnc4)ccc13)CCC(C(=O)NCCCc1ccccc1)C2 (configuration not stated)	40.8	Toxic	18000	–	–	–	–	–
Nc1c2c(nc3ccccc13)CCC(C(=O)NCc1ccccc1)C2 (configuration not stated)	37.2	–	10800	–	–	–	–	–
Nc1c2c(nc3ccccc13)CCC(C(=O)NCCc1ccccc1)C2 (configuration not stated)	16.8	Toxic	4050	–	Toxic	–	–	–
Nc1c2c(nc3cc(Br)ccc13)CCC(C(=O)NCc1ccccc1)C2 (configuration not stated)	33.7	Toxic	10200	> 80	–	–	–	–
Nc1c2c(nc3cc(Br)ccc13)CCC(C(=O)NCCc1ccccc1)C2 (configuration not stated)	24.1	Toxic	7170	–	Toxic	–	–	–
Cn1cc(-c2ccc3c(N)c4c(nc3c2)CCC(C(=O)NCc2ccccc2)C4)cn1 (configuration not stated)	191	–	2260	–	–	–	–	–
Nc1c2c(nc3ccccc13)CCC(C(=O)NCCCc1ccccc1)C2 (configuration not stated)	5.17	Toxic	3680	–	Toxic	–	–	–
Nc1c2c(nc3cc(Br)ccc13)CCC(C(=O)NCCCc1ccccc1)C2 (configuration not stated)	7.14	Toxic	5110	–	Toxic	–	–	–
CNC(=O)C1CCc2nc3cc(Br)ccc3c(N)c2C1 (configuration not stated)	28.6	–	–	> 80	Toxic	–	–	–
NNC(=O)C1CCc2nc3ccccc3c(N)c2C1 (configuration not stated)	13	–	–	–	–	Non-Toxic	Non-Toxic	Non-Toxic
